Experimental data taken from ChEMBL document CHEMBL1208738, “Optimization of privileged structures for selective and potent melanocortin subtype-4 receptor ligands” (Bioorg Med Chem Lett, 2010).

Columns and labels:
Melanocortin receptor 4 [1] = biological target: T1, Melanocortin receptor 4 (Homo sapiens, UniProt P32245); experiment: Agonist activity at human MC4 receptor expressed in CHO cells assessed as increase of alpha-MSH-induced cAMP accumulation at 10 uM relative to alpha-MSH; assay type: functional, cell-based
T1 sequence (P32245 whole entry): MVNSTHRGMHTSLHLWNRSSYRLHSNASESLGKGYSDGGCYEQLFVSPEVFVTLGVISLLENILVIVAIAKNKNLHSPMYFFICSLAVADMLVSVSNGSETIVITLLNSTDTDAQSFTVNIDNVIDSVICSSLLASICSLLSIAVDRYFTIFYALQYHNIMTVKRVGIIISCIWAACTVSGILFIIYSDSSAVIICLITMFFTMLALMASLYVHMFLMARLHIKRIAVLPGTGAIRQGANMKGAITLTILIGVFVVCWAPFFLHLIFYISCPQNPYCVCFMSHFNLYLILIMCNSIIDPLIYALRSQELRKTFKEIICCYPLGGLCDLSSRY

Melanocortin receptor 4 [2] = biological target: T1, Melanocortin receptor 4; experiment: Displacement of [125I]NDP-alpha-MSH from human MC4 receptor expressed in CHO cells; assay type: cell-based
Melanocortin receptor 4 [3] = biological target: T1, Melanocortin receptor 4; experiment: Agonist activity at human MC4 receptor expressed in CHO cells assessed as increase of alpha-MSH-induced cAMP accumulation; assay type: functional, cell-based
Melanocortin receptor 5 [4] = biological target: T2, Melanocortin receptor 5 (Homo sapiens, UniProt P33032); experiment: Agonist activity at human MC5 receptor expressed in CHO cells assessed as increase of alpha-MSH-induced cAMP accumulation; assay type: functional, cell-based
T2 sequence (P33032 whole entry): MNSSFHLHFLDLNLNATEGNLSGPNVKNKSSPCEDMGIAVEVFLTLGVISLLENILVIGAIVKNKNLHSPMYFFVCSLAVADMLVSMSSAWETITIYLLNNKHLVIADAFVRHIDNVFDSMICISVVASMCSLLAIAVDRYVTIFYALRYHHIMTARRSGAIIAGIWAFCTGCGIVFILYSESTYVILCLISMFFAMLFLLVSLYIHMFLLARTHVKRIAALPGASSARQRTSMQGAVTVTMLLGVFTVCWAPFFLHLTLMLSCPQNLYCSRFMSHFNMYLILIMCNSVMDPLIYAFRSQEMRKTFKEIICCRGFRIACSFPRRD

Melanocortin receptor 3 [5] = biological target: T3, Melanocortin receptor 3 (Homo sapiens, UniProt P41968); experiment: Agonist activity at human MC3 receptor expressed in CHO cells assessed as increase of alpha-MSH-induced cAMP accumulation; assay type: functional, cell-based
T3 sequence (P41968 whole entry): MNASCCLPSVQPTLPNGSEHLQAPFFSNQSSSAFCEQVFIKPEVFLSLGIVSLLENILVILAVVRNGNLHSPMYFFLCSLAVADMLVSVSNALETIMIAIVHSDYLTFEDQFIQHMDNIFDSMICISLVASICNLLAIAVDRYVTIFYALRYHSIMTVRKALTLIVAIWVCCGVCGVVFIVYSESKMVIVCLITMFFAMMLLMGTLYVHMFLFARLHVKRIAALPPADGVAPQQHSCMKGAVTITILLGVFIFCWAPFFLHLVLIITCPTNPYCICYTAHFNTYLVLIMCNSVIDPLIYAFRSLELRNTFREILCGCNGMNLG

Melanocortin receptor 3 [6] = biological target: T3, Melanocortin receptor 3; experiment: Displacement of [125I]NDP-alpha-MSH from human MC3 receptor expressed in CHO cells; assay type: cell-based
[7] = biological target: T4, Melanocyte-stimulating hormone receptor (Homo sapiens, UniProt Q01726); experiment: Displacement of [125I]NDP-alpha-MSH from human MC1 receptor expressed in CHO cells; assay type: cell-based
Target sequence in this assay (Q01726 whole entry): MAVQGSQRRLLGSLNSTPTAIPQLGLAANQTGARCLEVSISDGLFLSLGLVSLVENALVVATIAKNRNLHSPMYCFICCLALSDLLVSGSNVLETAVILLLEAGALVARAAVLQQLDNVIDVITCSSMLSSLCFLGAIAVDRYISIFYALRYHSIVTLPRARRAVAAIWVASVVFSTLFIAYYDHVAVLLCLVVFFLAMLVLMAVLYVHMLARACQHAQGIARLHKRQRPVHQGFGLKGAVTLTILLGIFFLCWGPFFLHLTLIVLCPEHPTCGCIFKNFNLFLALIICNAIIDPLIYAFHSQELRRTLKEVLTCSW

Melanocortin receptor 5 [8] = biological target: T2, Melanocortin receptor 5; experiment: Displacement of [125I]NDP-alpha-MSH from human MC5 receptor expressed in CHO cells; assay type: cell-based
[9] = biological target: T4, Melanocyte-stimulating hormone receptor; experiment: Agonist activity at human MC1 receptor expressed in CHO cells assessed as increase of alpha-MSH-induced cAMP accumulation; assay type: functional, cell-based
Target sequence in this assay (Q01726 whole entry): as above

Homo sapiens [10] = species on record: Homo sapiens; experiment: Selectivity ratio of IC50 for human MC5 receptor to IC50 for human MC4 receptor
Homo sapiens [11] = species on record: Homo sapiens; experiment: Selectivity ratio of EC50 for human MC1 receptor to EC50 for human MC4 receptor
Homo sapiens [12] = species on record: Homo sapiens; experiment: Selectivity ratio of EC50 for human MC5 receptor to EC50 for human MC4 receptor
Melanocortin receptor 3 [13] = biological target: T3, Melanocortin receptor 3; experiment: Agonist activity at human MC3 receptor expressed in CHO cells assessed as increase of alpha-MSH-induced cAMP accumulation at 10 uM relative to alpha-MSH; assay type: functional, cell-based
Homo sapiens [14] = species on record: Homo sapiens; experiment: Selectivity ratio of IC50 for human MC1 receptor to IC50 for human MC4 receptor
[15] = biological target: T4, Melanocyte-stimulating hormone receptor; experiment: Agonist activity at human MC1 receptor expressed in CHO cells assessed as increase of alpha-MSH-induced cAMP accumulation at 10 uM relative to alpha-MSH; assay type: functional, cell-based
Target sequence in this assay (Q01726 whole entry, looked up): as the sequence (Q01726 whole entry) above

Melanocortin receptor 5 [16] = biological target: T2, Melanocortin receptor 5; experiment: Agonist activity at human MC5 receptor expressed in CHO cells assessed as increase of alpha-MSH-induced cAMP accumulation at 10 uM relative to alpha-MSH; assay type: functional, cell-based

Question: How did the Activity (Melanocortin receptor 4 [1]) turn out when CC(=O)N(CC(CC(C)C)N1CCN(C(=O)[C@@H]2CN(C(C)(C)C)C[C@H]2c2ccc(F)cc2F)CC1)C(C)C (single isomer, unassigned; diastereomer 1) [listing 1 of 2 here] was run?
Answer: 101%

Question: How did the IC50 (Melanocortin receptor 4 [2]) turn out when CC(C)N(CC(C1CCCCC1)N1CCN(C(=O)[C@@H]2CN(C(C)(C)C)C[C@H]2c2ccc(F)cc2F)CC1)C(=O)c1ncccn1 (stereo in doubt; 22B) was run?
Answer: 130 nM

Question: What about the EC50 (Melanocortin receptor 4 [3]) of the same compound?
Answer: 15 nM

Question: Which results are given for CC(C)CC(CN(C(C)C)S(C)(=O)=O)N1CCN(C(=O)[C@@H]2CN(C(C)(C)C)C[C@H]2c2ccc(F)cc2F)CC1 (single isomer, unassigned; diastereomer 2)?
Answer: EC50 (Melanocortin receptor 5 [4]): > 5000 nM; IC50 (Melanocortin receptor 4 [2]): 27 nM; EC50 (Melanocortin receptor 3 [5]): 2500 nM; IC50 (Melanocortin receptor 3 [6]): 4900 nM; IC50 [7]: 5000 nM; IC50 (Melanocortin receptor 5 [8]): 2800 nM; EC50 [9]: > 5000 nM; EC50 (Melanocortin receptor 4 [3]): 19 nM

Question: Which IC50 (Melanocortin receptor 4 [2]) does the source give for CC(=O)N(CC(N1CCN(C(=O)[C@@H]2CN(C(C)(C)C)C[C@H]2c2ccc(F)cc2F)CC1)C(C)(C)C)C(C)C (single isomer, unassigned; diastereomer 2) here?
Answer: 150 nM

Question: What about the EC50 (Melanocortin receptor 4 [3]) of the same compound?
Answer: 180 nM

Question: For CC(C)N(CC(C1CCCCC1)N1CCN(C(=O)[C@@H]2CN(C(C)(C)C)C[C@H]2c2ccc(F)cc2F)CC1)S(C)(=O)=O (single isomer, unassigned; diastereomer 2), which Ratio IC50 (Homo sapiens [10]) is on record?
Answer: 20

Question: And the Ratio EC50 (Homo sapiens [11])?
Answer: 20

Question: And the Ratio EC50 (Homo sapiens [12])?
Answer: 20

Question: And the Activity (Melanocortin receptor 3 [13])?
Answer: 94%

Question: And the Ratio IC50 (Homo sapiens [14])?
Answer: 20

Question: What about the Activity [15] of the same compound?
Answer: 63%

Question: And the Activity (Melanocortin receptor 5 [16])?
Answer: 57%

Question: What about the Activity (Melanocortin receptor 4 [1]) of the same compound?
Answer: 117%

Question: With CC(C)N(CC(C1CCCCC1)N1CCN(C(=O)[C@@H]2CN(C(C)(C)C)C[C@H]2c2ccc(F)cc2F)CC1)C(=O)c1cccnn1 (single isomer, unassigned; diastereomer 2) as the compound, how does the IC50 (Melanocortin receptor 4 [2]) read?
Answer: 64 nM

Question: And the EC50 (Melanocortin receptor 4 [3])?
Answer: 9.1 nM

Question: With CC(C)N(CC(N1CCN(C(=O)[C@@H]2CN(C(C)(C)C)C[C@H]2c2ccc(F)cc2F)CC1)C(C)(C)C)S(C)(=O)=O (stereo in doubt; 27A) as the compound, how does the Activity (Melanocortin receptor 4 [1]) read?
Answer: 88%

Question: What does the source list for CCCN(CCC)CC(C1CCCCC1)N1CCN(C(=O)[C@@H]2CN(C(C)(C)C)C[C@H]2c2ccc(F)cc2F)CC1 (some centres not stated)?
Answer: IC50 (Melanocortin receptor 4 [2]): 200 nM; EC50 (Melanocortin receptor 4 [3]): 710 nM; Activity (Melanocortin receptor 4 [1]): 97%

Question: What does the source list for CC(=O)N(CC(CC(C)C)N1CCN(C(=O)[C@@H]2CN(C(C)(C)C)C[C@H]2c2ccc(F)cc2F)CC1)C(C)C (single isomer, unassigned; diastereomer 2)?
Answer: EC50 (Melanocortin receptor 5 [4]): > 5000 nM; IC50 (Melanocortin receptor 4 [2]): 23 nM; EC50 (Melanocortin receptor 3 [5]): 880 nM; IC50 (Melanocortin receptor 3 [6]): 4700 nM; IC50 [7]: 3600 nM; IC50 (Melanocortin receptor 5 [8]): 1100 nM; EC50 [9]: 560 nM; EC50 (Melanocortin receptor 4 [3]): 9.7 nM

Question: For CC(C)N(CC(C1CCCCC1)N1CCN(C(=O)[C@@H]2CN(C(C)(C)C)C[C@H]2c2ccc(F)cc2F)CC1)C(=O)c1cnn(C(C)C)c1 (single isomer, unassigned; diastereomer 2), which Activity (Melanocortin receptor 4 [1]) is on record?
Answer: 81%

Question: Which IC50 (Melanocortin receptor 4 [2]) does the source give for CC(C)NCC(C1CCCCC1)N1CCN(C(=O)[C@@H]2CN(C(C)(C)C)C[C@H]2c2ccc(F)cc2F)CC1 (some centres not stated) here?
Answer: 310 nM

Question: And the EC50 (Melanocortin receptor 4 [3])?
Answer: 240 nM

Question: And the Activity (Melanocortin receptor 4 [1])?
Answer: 95%

Question: CC(C)N(CC(C1CCCCC1)N1CCN(C(=O)[C@@H]2CN(C(C)(C)C)C[C@H]2c2ccc(F)cc2F)CC1)C(=O)c1cccnn1 (single isomer, unassigned; diastereomer 1) [listing 1 of 2 here] was tested. Which EC50 (Melanocortin receptor 5 [4]) did it give?
Answer: 490 nM

Question: And the IC50 (Melanocortin receptor 4 [2])?
Answer: 18 nM

Question: What about the EC50 (Melanocortin receptor 3 [5]) of the same compound?
Answer: 90 nM

Question: What about the IC50 (Melanocortin receptor 3 [6]) of the same compound?
Answer: 770 nM

Question: And the IC50 [7]?
Answer: 1900 nM

Question: What about the IC50 (Melanocortin receptor 5 [8]) of the same compound?
Answer: 130 nM

Question: What about the EC50 [9] of the same compound?
Answer: 1200 nM

Question: What about the EC50 (Melanocortin receptor 4 [3]) of the same compound?
Answer: 5.4 nM

Question: For CC(C)CC(CN(C(C)C)S(C)(=O)=O)N1CCN(C(=O)[C@@H]2CN(C(C)(C)C)C[C@H]2c2ccc(F)cc2F)CC1 (single isomer, unassigned; diastereomer 1), which Activity (Melanocortin receptor 4 [1]) is on record?
Answer: 117%

Question: What does the source list for CC(=O)N(CC(CC(C)C)N1CCN(C(=O)[C@@H]2CN(C(C)(C)C)C[C@H]2c2ccc(F)cc2F)CC1)C(C)C (single isomer, unassigned; diastereomer 1) [listing 2 of 2 here]?
Answer: IC50 (Melanocortin receptor 4 [2]): 49 nM; EC50 (Melanocortin receptor 4 [3]): 29 nM

Question: What does the source list for CC(C)N(CC(C1CCCCC1)N1CCN(C(=O)[C@@H]2CN(C(C)(C)C)C[C@H]2c2ccc(F)cc2F)CC1)C(=O)c1cccnn1 (single isomer, unassigned; diastereomer 1) [listing 2 of 2 here]?
Answer: Activity (Melanocortin receptor 3 [13]): 108%; Activity [15]: 58%; Activity (Melanocortin receptor 5 [16]): 68%; Activity (Melanocortin receptor 4 [1]): 102%

Question: Which results are given for CC(=O)N(CC(N1CCN(C(=O)[C@@H]2CN(C(C)(C)C)C[C@H]2c2ccc(F)cc2F)CC1)C(C)(C)C)C(C)C (single isomer, unassigned; diastereomer 1) [listing 1 of 2 here]?
Answer: IC50 (Melanocortin receptor 4 [2]; cho): 150 nM; EC50 (Melanocortin receptor 4 [3]; cho): 180 nM

Question: With CC(=O)N(CC(N1CCN(C(=O)[C@@H]2CN(C(C)(C)C)C[C@H]2c2ccc(F)cc2F)CC1)C(C)(C)C)C(C)C (single isomer, unassigned; diastereomer 1) [listing 2 of 2 here] as the compound, how does the Activity (Melanocortin receptor 4 [1]) read?
Answer: 89%
